Experiments:
[1] = Selectivity test of TPENNO2: essential amino acids; conditions: 25 μM TPENNO2 in PBS, 300 μM analyte, 37℃, 30 min, Ex=341 nm
[2] = Reaction kinetics of TPENNO2 with the thiol of Cys
[3] = Response time of TPENNO2 to Cys (fluorescence vs incubation time); conditions: 25 μM TPENNO2, PBS (50 mM, pH 7.4, 2.5% DMSO), 200 μM Cys, 37℃
[4] = Reaction kinetics of TPENNO2 with the thiol of GSH
[5] = Selectivity test of TPENNO2: GSH; conditions: 300 μM GSH, 37℃, 30 min, Ex=341 nm
[6] = Selectivity test of TPENNO2: Hcy; conditions: 300 μM Hcy, 37℃, 30 min, Ex=341 nm
[7] = system: thiol compounds in HeLa cells [HeLa细胞内巯基化合物]; assay: Fluorescence imaging of intracellular thiols in HeLa cells; type: cell-based, human

O=[N+]([O-])c1ccc(S(=O)(=O)Nc2ccc(C(=C(c3ccccc3)c3ccccc3)c3ccccc3)cc2)c([N+](=O)[O-])c1 [TPENNO2]
change of fluorescence intensity after reaction with essential amino acids other than Cys [1]: 没有明显增强 | first-order reaction kinetic constant with the thiol of Cys [2]: 0.13 min⁻¹ | incubation time after which fluorescence intensity is essentially saturated [3]: 30 min | first-order reaction kinetic constant with the thiol of GSH [4]: 0.0048 min⁻¹ | change of fluorescence intensity after reaction with GSH ([5]; 25 μM TPENNO2 in PBS): 没有明显增强 | interference of GSH with Cys detection [5]: 干扰均较小 | change of fluorescence intensity after reaction with Hcy ([6]; 25 μM TPENNO2 in PBS): 没有明显增强 | interference of Hcy with Cys detection [6]: 干扰均较小 | fluorescence signal in HeLa cells ([7]; 4 μM TPENNO2, 20 min, no pretreatment, Ex 405 nm, 450-550 nm collected): 绿色荧光信号 | fluorescence signal in HeLa cells after Cys pretreatment ([7]; 0.5 mM Cys 24 h, then 4 μM TPENNO2, 20 min): 荧光信号增强 | fluorescence signal in HeLa cells after NEM pretreatment ([7]; 0.5 mM NEM (N-ethylmaleimide, thiol-consuming) 15 min, then 4 μM TPENNO2, 20 min): 荧光信号减弱

— patent CN106905199A, “一种基于聚集诱导发光原理用于选择性检测半胱氨酸的荧光试剂的合成及应用” (Gannan Normal University, priority 2017, dated 2017)
